SMILES strings stand for the structures. ≈ marks a conversion by molar mass, not a printed value.

In experiment [1] the test system is Salmonella typhimurium. The experiment in a line: Antimicrobial activity against Salmonella enterica serovar Typhimurium transconjugant p61/9T expressing qnrB19 gene variant carried by IncL/M-like plasmid by Etest. It is filed as functional, Salmonella enterica subsp. enterica serovar Typhimurium.
The subject of experiment [2] is Escherichia coli. The experiment in a line: Antimicrobial activity against Escherichia coli CSH26RifR receiving qnrB19 gene variant carried by IncL/M-like plasmid from Salmonella enterica serovar Typhimurium STYM61/9 by Etest. It is filed as functional.
For experiment [3], the system named is Salmonella typhimurium. The experiment in a line: Antimicrobial activity against Salmonella enterica serovar Typhimurium STYM61/9 expressing qnrB19 gene variant carried by IncL/M-like plasmid by Etest. It is filed as functional, Salmonella enterica subsp. enterica serovar Typhimurium.

Take `CCn1cc(C(=O)O)c(=O)c2cc(F)c(N3CCNCC3)cc21` [NORFLOXACIN]: the minimal inhibitory concentration (MIC) was 0.5 µg/mL (≈ 1.57 µM) in experiment [1], 0.064 µg/mL (≈ 0.2 µM) in experiment [2] and 1 µg/mL (≈ 3.13 µM) in experiment [3].
Take `COc1c(N2C[C@@H]3CCCN[C@@H]3C2)c(F)cc2c(=O)c(C(=O)O)cn(C3CC3)c12` [MOXIFLOXACIN]: the results for the MIC in experiment [1], in experiment [2] and in experiment [3] were 0.5 µg/mL (≈ 1.25 µM), 0.047 µg/mL (≈ 0.117 µM) and 0.5 µg/mL (≈ 1.25 µM), respectively.
As for `O=C(O)c1cn(C2CC2)c2cc(N3CCNCC3)c(F)cc2c1=O` [CIPROFLOXACIN], the MIC in experiment [1] stood at 0.19 µg/mL (≈ 0.573 µM); in experiment [3], 0.38 µg/mL (≈ 1.15 µM).
As for `CC1COc2c(N3CCN(C)CC3)c(F)cc3c(=O)c(C(=O)O)cn1c23` (centres undefined) [OFLOXACIN], the MIC amounted to 0.75 µg/mL (≈ 2.08 µM) in experiment [1], 0.064 µg/mL (≈ 0.177 µM) in experiment [2] and 0.75 µg/mL (≈ 2.08 µM) in experiment [3].
Take `CCn1cc(C(=O)O)c(=O)c2ccc(C)nc21` [NALIDIXIC ACID]: the values for the MIC in experiment [1], in experiment [2] and in experiment [3] were 16 µg/mL (≈ 68.9 µM), 4 µg/mL (≈ 17.2 µM) and 12 µg/mL (≈ 51.7 µM), respectively.

What is called MIC is the lowest concentration found to suppress growth. A high value points to a need for much substance.

Source of the values: ChEMBL document CHEMBL1649567, “Characterization of the plasmid-borne quinolone resistance gene qnrB19 in Salmonella enterica serovar Typhimurium” (2009).
